Earlier results as cited in patent US11389520B2, “Modified tetra-acylated neisserial LPS” (priority 2016, dated 2022).

Target: human TLR4/MD-2 complex (Homo sapiens, UniProt O00206+Q9Y6Y9)
Sequence (O00206 24-839): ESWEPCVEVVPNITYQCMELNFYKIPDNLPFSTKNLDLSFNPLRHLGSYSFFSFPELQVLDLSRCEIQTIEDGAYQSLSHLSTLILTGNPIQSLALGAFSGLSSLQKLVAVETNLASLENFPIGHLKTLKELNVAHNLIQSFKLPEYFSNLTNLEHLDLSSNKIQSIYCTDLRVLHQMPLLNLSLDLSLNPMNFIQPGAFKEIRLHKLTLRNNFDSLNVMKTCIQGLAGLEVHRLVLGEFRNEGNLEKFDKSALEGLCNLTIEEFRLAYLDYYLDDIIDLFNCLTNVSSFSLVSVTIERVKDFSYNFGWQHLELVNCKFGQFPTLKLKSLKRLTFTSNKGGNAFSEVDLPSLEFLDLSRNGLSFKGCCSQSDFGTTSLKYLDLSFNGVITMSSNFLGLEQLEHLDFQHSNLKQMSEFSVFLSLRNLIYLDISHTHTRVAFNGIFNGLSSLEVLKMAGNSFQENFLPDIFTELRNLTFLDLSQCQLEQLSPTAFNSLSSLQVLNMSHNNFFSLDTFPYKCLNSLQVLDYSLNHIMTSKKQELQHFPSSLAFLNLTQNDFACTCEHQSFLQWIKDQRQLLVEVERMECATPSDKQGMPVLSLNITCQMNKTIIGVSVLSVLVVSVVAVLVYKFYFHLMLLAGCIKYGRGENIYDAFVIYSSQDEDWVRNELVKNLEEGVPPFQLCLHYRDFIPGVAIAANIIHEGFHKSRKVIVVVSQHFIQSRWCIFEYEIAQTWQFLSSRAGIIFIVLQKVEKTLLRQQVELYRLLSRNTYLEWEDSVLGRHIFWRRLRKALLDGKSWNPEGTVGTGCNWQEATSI
Sequence (Q9Y6Y9 17-160 limits assumed): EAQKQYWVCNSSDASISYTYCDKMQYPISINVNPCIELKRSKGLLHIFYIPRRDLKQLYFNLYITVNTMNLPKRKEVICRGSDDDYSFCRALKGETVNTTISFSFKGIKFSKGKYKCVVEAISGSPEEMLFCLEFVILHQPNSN

CCCCCCCCCCC[C@@H](O)CC(=O)N[C@H]1[C@H](OC[C@H]2O[C@H](OP(=O)(O)O)[C@H](NC(=O)C[C@H](O)CCCCCCCCCCC)[C@@H](OC(=O)C[C@H](O)CCCCCCCCCCC)[C@@H]2O)O[C@H](CO)[C@@H](OP(=O)(O)O)[C@@H]1OC(=O)C[C@H](O)CCCCCCCCCCC [lipid IVa]
Action on the human TLR4/MD-2 complex: antagonist
